Reference: article PMC11435058, “Synthesis of New Thiazole-Privileged Chalcones as Tubulin Polymerization Inhibitors with Potential Anticancer Activities” (Pharmaceuticals, 2024)

What was measured:
[1] = system: MDA-MB-231/ATCC; assay: NCI-60 anticancer screen (SRB; single dose and five doses); conditions: Homo sapiens; for activity at 10 µM: MDA-MB-231, 48 h, read-out: Growth Percentage
[2] = system: MDA-MB-435; assay: as above; conditions: Homo sapiens; for activity at 10 µM: MDA-MB-435, 48 h, read-out: Growth Percentage
[3] = system: 786-0; assay: as above; conditions: Homo sapiens; for activity at 10 µM: 786-0, 48 h, read-out: Growth Percentage
[4] = system: SF-295; assay: as above; conditions: Homo sapiens; for activity at 10 µM: SF-295, 48 h, read-out: Growth Percentage
[5] = system: SNB-19; assay: cells; conditions: Homo sapiens; for activity at 10 µM: SNB-19, 48 h, read-out: Growth Percentage
[6] = system: BT-549; assay: NCI-60 anticancer screen (SRB; single dose and five doses); conditions: Homo sapiens; for activity at 10 µM: BT-549, 48 h, read-out: Growth Percentage
[7] = system: T-47D; assay: as above; conditions: Homo sapiens, T47D
[8] = system: HL-60(TB); assay: as above; conditions: Homo sapiens; for activity at 10 µM: HL-60, 48 h, read-out: Growth Percentage
[9] = system: SW-620; assay: as above; conditions: Homo sapiens; for activity at 10 µM: SW-620, 48 h, read-out: Growth Percentage
[10] = system: NCI-H23; assay: as above; conditions: Homo sapiens; for activity at 10 µM: NCI-H23, 48 h, read-out: Growth Percentage
[11] = system: TK-10; assay: as above; conditions: Homo sapiens; for activity at 10 µM: TK-10, 48 h, read-out: Growth Percentage
[12] = system: SK-MEL-28; assay: as above; conditions: Homo sapiens; for activity at 10 µM: SK-MEL-28, 48 h, read-out: Growth Percentage
[13] = system: MALME-3M; assay: as above; conditions: Homo sapiens; for activity at 10 µM: 48 h, read-out: Growth Percentage
[14] = system: HCC-2998; assay: as above; conditions: for activity at 10 µM: HCC 2998, 48 h, read-out: Growth Percentage
[15] = system: SF-539; assay: as above; conditions: Homo sapiens; for activity at 10 µM: SF-539, 48 h, read-out: Growth Percentage
[16] = system: PC-3; assay: as above; conditions: Homo sapiens; for activity at 10 µM: PC-3, 48 h, read-out: Growth Percentage
[17] = system: CCRF-CEM; assay: NCI-60 anticancer screen (SRB; single dose 10 μM and five doses); conditions: Homo sapiens; for activity at 10 µM: 48 h, read-out: Growth Percentage
[18] = system: OVCAR-4; assay: NCI-60 anticancer screen (SRB; single dose and five doses); conditions: Homo sapiens; for activity at 10 µM: OVCAR-4, 48 h, read-out: Growth Percentage
[19] = system: HOP-62; assay: as above; conditions: Homo sapiens
[20] = system: SN12C; assay: as above; conditions: Homo sapiens; for activity at 10 µM: 48 h, read-out: Growth Percentage
[21] = system: UACC-257; assay: as above; conditions: Homo sapiens; for activity at 10 µM: UACC-257, 48 h, read-out: Growth Percentage
[22] = system: MOLT-4; assay: as above; conditions: Homo sapiens; for activity at 10 µM: MOLT-4, 48 h, read-out: Growth Percentage
[23] = system: A498; assay: as above; conditions: Homo sapiens; for activity at 10 µM: A498, 48 h, read-out: Growth Percentage, A498, dose of 10 μM
[24] = system: RXF 393; assay: as above; conditions: Homo sapiens; for activity at 10 µM: RXF 393, 48 h, read-out: Growth Percentage
[25] = system: SK-MEL-5; assay: as above; conditions: Homo sapiens; for activity at 10 µM: SK-MEL-5, 48 h, read-out: Growth Percentage
[26] = system: DU-145; assay: as above; conditions: Homo sapiens; for activity at 10 µM: DU-145, 48 h, read-out: Growth Percentage
[27] = system: M14; assay: as above; conditions: Homo sapiens; for activity at 10 µM: M14, 48 h, read-out: Growth Percentage
[28] = system: SK-OV-3; assay: as above; conditions: Homo sapiens

Compound: COc1ccc(/C=C/C(=O)c2sc(=S)[nH]c2C)cc1OC [2o, (E)-3-(3,4-Dimethoxyphenyl)-1-(4-Methyl-2-Thioxo-2,3-Dihydrothiazol-5-yl)Prop-2-En-1-One]
- activity at 10 µM [1]: 58.4%
- activity at 10 µM [2]: 38.9%
- activity at 10 µM [3]: 60%
- activity at 10 µM [4]: 66.5%
- activity at 10 µM [5]: 61.9%
- activity at 10 µM [6]: 18.9%
- activity at 10 µM ([7]; 48 h, read-out: Growth Percentage): 44.1%
- activity at 10 µM [8]: 35.6%
- activity at 10 µM [9]: 34.9%
- activity at 10 µM [10]: 65.1%
- activity at 10 µM [11]: 75.4%
- activity at 10 µM [12]: 83.2%
- activity at 10 µM [13]: 89.6%
- activity at 10 µM ([14]; Homo sapiens): 41.7%
- activity at 10 µM [15]: 29.8%
- activity at 10 µM [16]: 68.9%
- activity at 10 µM [17]: 15.5%
- activity at 10 µM [18]: 47.6%
- activity at 10 µM ([19]; HOP-62, 48 h, read-out: Growth Percentage): 34.1%
- activity at 10 µM [20]: 45.4%
- activity at 10 µM [21]: 71.4%
- activity at 10 µM [22]: 73.8%
- activity at 10 µM [23]: 126%
- activity at 10 µM [24]: 48.1%
- activity at 10 µM [25]: 63.1%
- activity at 10 µM [26]: 48.1%
- activity at 10 µM [27]: 82.2%
- activity at 10 µM ([28]; SK-OV-3, 48 h, read-out: Growth Percentage): 76.9%

Compound: Cc1[nH]c(=S)sc1C(=O)/C=C/c1ccc(F)cc1 [2c, (E)-3-(4-Fluorophenyl)-1-(4-Methyl-2-Thioxo-2,3-Dihydrothiazol-5-yl)Prop-2-En-1-One]
- GI50 ([1]; MDA-MB-231): 15.7 µM
- activity at 10 µM [1]: 29.7%
- CC50 ([1]; MDA-MB-231, read-out: LC50): 66.1 µM
- IC (TGI) ([1]; MDA-MB-231, read-out: TGI): 32.2 µM
- GI50 ([2]; MDA-MB-435): 4.24 µM
- activity at 10 µM [2]: 4.67%
- CC50 ([2]; MDA-MB-435, read-out: LC50): 48.7 µM
- IC (TGI) ([2]; MDA-MB-435, read-out: TGI): 17.5 µM
- GI50 ([3]; 786-0): 4.59 µM
- activity at 10 µM [3]: 37.3%
- CC50 ([3]; 786-0, read-out: LC50): 47.1 µM
- IC (TGI) ([3]; 786-0, read-out: TGI): 17.6 µM
- GI50 ([4]; SF-295): 12.5 µM
- activity at 10 µM [4]: 60.6%
- CC50 ([4]; SF-295, read-out: LC50): 52.9 µM
- IC (TGI) ([4]; SF-295, read-out: TGI): 25.7 µM
- GI50 ([5]; SNB-19): 4.87 µM
- activity at 10 µM [5]: 33.7%
- CC50 ([5]; SNB-19, read-out: LC50): 43.1 µM
- IC (TGI) ([5]; SNB-19, read-out: TGI): 17.8 µM
- GI50 ([6]; BT-549): 2.34 µM
- activity at 10 µM [6]: 23.2%
- IC (TGI) ([6]; BT-549, read-out: TGI): 8.27 µM
- GI50 [7]: 3.94 µM
- CC50 ([7]; read-out: LC50): > 100 µM
- IC (TGI) ([7]; read-out: TGI): 28.8 µM
- GI50 ([8]; HL-60): 2.83 µM
- activity at 10 µM [8]: 13%
- CC50 ([8]; HL-60, read-out: LC50): > 100 µM
- IC (TGI) ([8]; HL-60, read-out: TGI): 32.2 µM
- GI50 ([9]; SW-620): 3.37 µM
- activity at 10 µM [9]: 13.8%
- CC50 ([9]; SW-620, read-out: LC50): 49.3 µM
- IC (TGI) ([9]; SW-620, read-out: TGI): 15 µM
- GI50 ([10]; NCI-H23): 10.6 µM
- activity at 10 µM [10]: 62.7%
- CC50 ([10]; NCI-H23, read-out: LC50): 49.9 µM
- IC (TGI) ([10]; NCI-H23, read-out: TGI): 23 µM
- GI50 ([11]; TK-10): 12.5 µM
- activity at 10 µM [11]: 40.4%
- CC50 ([11]; TK-10, read-out: LC50): 50.7 µM
- IC (TGI) ([11]; TK-10, read-out: TGI): 25.2 µM
- GI50 ([12]; SK-MEL-28): 11.8 µM
- activity at 10 µM [12]: 50.6%
- CC50 ([12]; SK-MEL-28, read-out: LC50): 51.4 µM
- IC (TGI) ([12]; SK-MEL-28, read-out: TGI): 24.7 µM
- GI50 [13]: 12.4 µM
- activity at 10 µM [13]: 85.8%
- CC50 ([13]; read-out: LC50): 60.9 µM
- IC (TGI) ([13]; read-out: TGI): 27.5 µM
- GI50 ([14]; Homo sapiens, HCC 2998): 3.46 µM
- activity at 10 µM ([14]; Homo sapiens): 27.1%
- CC50 ([14]; Homo sapiens, HCC 2998, read-out: LC50): 36.5 µM
- TGI ([14]; five-dose, Colon Cancer HCC-2998): 13.2 µM
- GI50 ([15]; SF-539): 2.94 µM
- activity at 10 µM [15]: -4.61%
- IC (TGI) ([15]; SF-539, read-out: TGI): 10.8 µM
- GI50 ([16]; PC-3): 5.82 µM
- activity at 10 µM [16]: 43.4%
- CC50 ([16]; PC-3, read-out: LC50): > 100 µM
- IC (TGI) ([16]; PC-3, read-out: TGI): 29.7 µM
- GI50 [17]: 3.68 µM
- activity at 10 µM [17]: -0.21%
- IC (TGI) ([17]; read-out: TGI): > 100 µM
- GI50 ([18]; OVCAR-4): 6.03 µM
- activity at 10 µM [18]: 48.4%
- CC50 ([18]; OVCAR-4, read-out: LC50): 44.7 µM
- IC (TGI) ([18]; OVCAR-4, read-out: TGI): 19.6 µM
- GI50 ([19]; HOP-62): 3.83 µM
- CC50 ([19]; HOP-62, read-out: LC50): 48.7 µM
- IC (TGI) ([19]; HOP-62, read-out: TGI): 16.2 µM
- GI50 [20]: 3.95 µM
- activity at 10 µM [20]: 24.1%
- CC50 ([20]; read-out: LC50): 46.7 µM
- IC (TGI) ([20]; read-out: TGI): 17 µM
- GI50 ([21]; UACC-257): 12.6 µM
- activity at 10 µM [21]: 64.1%
- CC50 ([21]; UACC-257, read-out: LC50): 56.6 µM
- IC (TGI) ([21]; UACC-257, read-out: TGI): 26.7 µM
- GI50 ([22]; MOLT-4): 16.7 µM
- activity at 10 µM [22]: 58.7%
- CC50 ([22]; MOLT-4, read-out: LC50): > 100 µM
- IC (TGI) ([22]; MOLT-4, read-out: TGI): 64.3 µM
- GI50 ([23]; A498): 13.6 µM
- activity at 10 µM [23]: 115%
- CC50 ([23]; A498, read-out: LC50): 52.6 µM
- IC (TGI) ([23]; A498, read-out: TGI): 26.8 µM
- GI50 ([24]; RXF 393): 3.02 µM
- activity at 10 µM [24]: 23.2%
- CC50 ([24]; RXF 393, read-out: LC50): 37.2 µM
- IC (TGI) ([24]; RXF 393, read-out: TGI): 13 µM
- GI50 ([25]; SK-MEL-5): 6.77 µM
- activity at 10 µM [25]: 42.6%
- CC50 ([25]; SK-MEL-5, read-out: LC50): 44.2 µM
- IC (TGI) ([25]; SK-MEL-5, read-out: TGI): 19.5 µM
- GI50 ([26]; DU-145): 4.32 µM
- activity at 10 µM [26]: 20.3%
- CC50 ([26]; DU-145, read-out: LC50): 39.9 µM
- IC (TGI) ([26]; DU-145, read-out: TGI): 15.7 µM
- GI50 ([27]; M14): 6.97 µM
- activity at 10 µM [27]: 49.6%
- IC (TGI) ([27]; M14, read-out: TGI): 22.2 µM
- GI50 ([28]; SK-OV-3): 11 µM
- CC50 ([28]; SK-OV-3, read-out: LC50): 61.8 µM
- IC (TGI) ([28]; SK-OV-3, read-out: TGI): 26.1 µM
